This experiment deals with T1, Cx43 HC (Mus musculus, UniProt P23242).
T1 construct: left ventricular isolated cardiomyocytes were collected; endogenous in cells; host or cells: left ventricular cardiomyocytes acutely isolated from adult C57BL6 mice
Description: Whole cell voltage-clamp recording of Cx43 HC unitary currents activated by combined RyR activation (caffeine)/[Ca2+]i elevation in isolated ventricular cardiomyocytes. Type of experiment: cell-based. The settings on record: RyR inhibitors; [Ca2+]i clamped to 250 nM (10 mM BAPTA); Vm = -70 mV. As to the method:
Adult C57BL6 mice, between 10 - 16 weeks, were heparinized (5000 IU/kg IP) and sacrificed by cervical dislocation. Following thoracotomy, the heart was quickly excised and then transferred to a Langendorff apparatus and perfused at a constant flow (^∼3 mL/min) and temperature (37°C). The heart was digested using collagenase and protease and left ventricular isolated cardiomyocytes were collected. Ca^2+-tolerant cells were used for the experiment for the next 6 hours. In case of Cx43 knockdown (KD) (Cx43^CreER(T)/fl) and respective control mice (Cre43^fl/fl) the isolation procedures were preceded by daily injection of tamoxifen to achieve global knockdown condition^25. Cre43^fl/fl mice are available from The Jackson Laboratory and the Cx43^CreER(T)/fl transgenic mouse strain can be made by any method known in the art.
Isolated ventricular cardiomyocytes and HeLa-Cx43 cells were studied under whole cell voltage-clamp to record membrane currents. Patch clamp experiments were conducted at room temperature (22 ± 1 °C). Fluo-4 (25 µM) was used to detect the [Ca^2+]i transients during the current recording.
Caffeine triggers two combined events, RyR activation and subsequent [Ca^2+]i elevation, and we next aimed to separate both processes. […] For simplicity, we further refer to the calculated concentrations in the following text. […]

T1 sequence (P23242 whole entry): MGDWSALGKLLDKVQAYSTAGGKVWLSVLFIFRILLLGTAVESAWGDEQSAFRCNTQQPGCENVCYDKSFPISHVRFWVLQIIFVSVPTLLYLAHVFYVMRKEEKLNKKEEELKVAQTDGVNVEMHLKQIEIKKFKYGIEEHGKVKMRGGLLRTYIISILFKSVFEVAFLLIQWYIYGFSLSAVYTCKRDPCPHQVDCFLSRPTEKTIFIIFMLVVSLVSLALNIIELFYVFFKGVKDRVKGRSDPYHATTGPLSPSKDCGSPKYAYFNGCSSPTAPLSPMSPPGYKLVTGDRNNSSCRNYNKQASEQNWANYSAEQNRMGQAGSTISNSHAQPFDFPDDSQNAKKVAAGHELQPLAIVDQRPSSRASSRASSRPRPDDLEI

Turning to `O=C1CN(/N=C/c2ccc(-c3ccc([N+](=O)[O-])cc3)o2)C(O)=N1` [dantrolene], the “caffeine-induced Cx43 HC activation” value is “did not inhibit”.

On to ryanodine, for which the “caffeine-induced Cx43 HC activation” value is “did not inhibit”.

For the origin of these results see EP3835316A1, “MOLECULES FOR USE TO TREAT OR PREVENT CARDIAC DISEASES” (Universiteit Gent, priority 2019, dated 2021).
